Reference: patent publication US11090304B2 (Amgen Inc., priority 2018, dated 2021)

Each compound was assayed against GDP-bound KRAS protein (aa 1-169), containing both G12C and C118A amino acid substitutions (Homo sapiens, UniProt P01116, C118A/G12C) (assay: Coupled nucleotide exchange assay (SOS-mediated, AlphaScreen)). Conditions: 5 min compound pre-incubation.
Assay type: biochemical

Sequence of GDP-bound KRAS protein (aa 1-169), containing both G12C and C118A amino acid substitutions (P01116 1-169 isoform P01116-2 G12C/C118A): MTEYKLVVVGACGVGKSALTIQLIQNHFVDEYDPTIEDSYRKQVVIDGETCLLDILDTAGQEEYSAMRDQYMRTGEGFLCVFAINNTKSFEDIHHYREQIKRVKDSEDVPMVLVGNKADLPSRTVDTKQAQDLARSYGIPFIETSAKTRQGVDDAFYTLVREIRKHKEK

Coupled exchange IC50 (5 min)	SMILES
8.63 | nda μM	C=CC(=O)N1CCN(c2nc(=O)n(-c3c(C)ccnc3C(C)C)c3nc(-c4cc(N)ccc4F)c(F)cc23)[C@@H](C)C1 (single isomer, unassigned) [Example 58-6-1]
13.7 | nda μM	C=CC(=O)N1CCN(c2nc(=O)n(-c3ccccc3C(C)C)c3nc(N(C)C(C)C)c(Cl)cc23)[C@@H](C)C1 [Example 69-6, 6-chloro-7-(methyl(2-propanyl)amino)-4-((2S)-2-methyl-4-(2-propenoyl)-1-piperazinyl)-1-(2-(2-propanyl)phenyl)pyrido[2,3-d]pyrimidin-2(1H)-one]
12.2 | nda μM	C=CC(=O)N1CCN(c2nc(=O)n(-c3ccccc3CC#N)c3nc(-c4c(O)cccc4F)c(Cl)cc23)[C@@H](C)C1 [Example 54-19, (2-(6-chloro-7-(2-fluoro-6-hydroxyphenyl)-4-((2S)-2-methyl-4-(2-propenoyl)-1-piperazinyl)-2-oxopyrido[2,3-d]pyrimidin-1(2H)-yl)phenyl) acetonitrile]
2.02 | nda μM	C=CC(=O)N1CCN(c2nc(=O)n(-c3c(C)ccnc3C(C)C)c3nc(-c4cc(N)ccc4Cl)c(F)cc23)[C@@H](C)C1 (single isomer, unassigned) [Example 58-8-2]
4.82 | nda μM	C=CC(=O)N1CCN(c2nc(=O)n(-c3c(C)ccnc3C(C)C)c3nc(-c4ccccc4F)c(F)cc23)[C@@H](C)C1 (single isomer, unassigned) [Example 58-4-2]
5.02 | nda μM	C=CC(=O)N1CCN(c2nc(=O)n(-c3cccnc3C(C)(C)C)c3nc(-c4ccccc4F)c(Cl)cc23)[C@@H](C)C1 (single isomer, unassigned) [Example 54-112-2]
20.8 | nda μM	C=CC(=O)N1CCN(c2nc(=O)n(C)c3nc(-c4c(O)cccc4F)c(Cl)cc23)[C@@H](C)C1 [Example 55-34, 6-chloro-7-(2-fluoro-6-hydroxyphenyl)-1-methyl-4-((2S)-2-methyl-4-(2-propenoyl)-1-piperazinyl)pyrido[2,3-d]pyrimidin-2(1H)-one]
0.731 | nda μM	C=CC(=O)N1CCN(c2nc(=O)n(-c3c(OC)ncnc3C(C)C)c3nc(-c4ccccc4F)c(Cl)cc23)[C@@H](C)C1 (single isomer, unassigned) [Example 54-107-1]
16.2 | nda μM	C=CC(=O)N1CCN(c2nc(=O)n(-c3c(C4CC4)ccnc3C)c3nc(-c4ccccc4F)c(F)cc23)[C@@H](C)C1 (single isomer, unassigned) [Example 58-20-1]
2.71 | nda μM	C=CC(=O)N1CCN(c2nc(=O)n(-c3c(CO)ccnc3C(C)C)c3nc(-c4ccccc4F)c(Cl)cc23)C(C)C1 (atropisomer, axis not shown; (P)) [Example 84-1, (P)-6-chloro-7-(2-fluorophenyl)-1-(4-(hydroxymethyl)-2-(2-propanyl)-3-pyridinyl)-4-((2S)-2-methyl-4-(2-propenoyl)-1-piperazinyl)pyrido[2,3-d]pyrimidin-2(1H)-one]
1.52 | nda μM	C=CC(=O)N1CCN(c2nc(=O)n(-c3ccccc3C3(C)CC3)c3nc(-c4ccccc4F)c(Cl)cc23)[C@@H](C)C1 (single isomer, unassigned) [Example 54-99-1]
3.38 | nda μM	C=CC(=O)N1CCN(c2nc(=O)n(-c3ccccc3C(C)C)c3nc(-c4c(F)cccc4C#N)c(Cl)cc23)[C@@H](C)C1 (single isomer, unassigned) [Example 98-2]
5.45 | nda μM	C=CC(=O)N1CCN(c2nc(=O)n(-c3ccccc3C3(C)CC3)c3nc(Cl)c(Cl)cc23)[C@@H](C)C1 [Example 54-98]
14.2 | nda μM	C=CC(=O)N1CCN(c2cc(=O)n(CC(C)(C)C)c3nc(-c4ccccc4F)c(Cl)cc23)[C@@H](C)C1 [Example 121, 6-chloro-1-(2,2-dimethylpropyl)-7-(2-fluorophenyl)-4-((2S)-2-methyl-4-(2-propenoyl)-1-piperazinyl)-1,8-naphthyridin-2(1H)-one]
1.91 | nda μM	C=CC(=O)N1CCN(c2nc(=O)n(-c3ccccc3C(C)C)c3nc(-c4cccs4)c(Cl)cc23)[C@@H](C)C1 (single isomer, unassigned) [Example 67-4-2]
12.9 | nda μM	C=CC(=O)N1CCN(c2nc(=O)n(-c3c(CC)cccc3CC)c3nc(-c4cccnc4)c(Cl)cc23)[C@@H](C)C1 [Example 55-28, 6-chloro-1-(2,6-diethylphenyl)-4-((2S)-2-methyl-4-(2-propenoyl)-1-piperazinyl)-7-(3-pyridinyl)pyrido[2,3-d]pyrimidin-2(1H)-one]
1.24 | nda μM	C=CC(=O)N1CCN(c2nc(=O)n(-c3ccccc3S(C)(=O)=O)c3nc(-c4c(O)cccc4F)c(Cl)cc23)[C@@H](C)C1 (single isomer, unassigned) [Example 54-56-2]
30.3 | nda μM	C=CC(=O)N1CCN(c2nc(=O)n(-c3c(C)ccnc3C(C)C)c3nc(-c4ccccc4F)c(Cl)cc23)C2(CC2)C1 (single isomer, unassigned) [Example 78-4, (M)-6-chloro-7-(2-fluorophenyl)-1-(4-methyl-2-(2-propanyl)-3-pyridinyl)-4-(7-(2-propenoyl)-4,7-diazaspiro[2.5]octan-4-yl)pyrido[2,3-d]pyrimidin-2(1H)-one]
28.6 | nda μM	C=CC(=O)N1CCC(Oc2nc(=O)n(-c3c(C)ccnc3C(C)C)c3nc(-c4ccccc4F)c(Cl)cc23)C1 (racemic) [Example 79-2, (M)-6-chloro-7-(2-fluorophenyl)-1-(4-methyl-2-(2-propanyl)-3-pyridinyl)-4-((1-(2-propenoyl)-3-pyrrolidinyl)oxy)pyrido[2,3-d]pyrimidin-2(1H)-one]
1.1 | nda μM	C=CC(=O)N1CCN(c2nc(=O)n(-c3ccccc3C3(C(F)(F)F)CC3)c3nc(-c4c(O)cccc4F)c(F)cc23)[C@@H](C)C1 (single isomer, unassigned) [Example 59-1-2]
0.863 | nda μM	C=CC(=O)N1CCN(c2nc(=O)n(-c3c(C)ccnc3N(C)C)c3nc(-c4ccccc4F)c(Cl)cc23)[C@@H](C)C1 (single isomer, unassigned) [Example 55-7-1]
2.37 | nda μM	C=CC(=O)N1CCN(c2nc(=O)n(-c3c(C)ccnc3C(C)C)c3nc(Cl)c(Cl)cc23)[C@@H](C)C1 (atropisomer, axis not shown; (M)) [Example 61-2-2, (M)-6,7-dichloro-1-(4-methyl-2-(2-propanyl)-3-pyridinyl)-4-((2S)-2-methyl-4-(2-propenoyl)-1-piperazinyl)pyrido[2,3-d]pyrimidin-2(1H)-one]
2.71 | nda μM	C=CC(=O)N1CCN(c2nc(=O)n(-c3ccccc3C(C)C)c3nc(-c4ccc(F)cc4O)c(Cl)cc23)[C@@H](C)C1 (single isomer, unassigned) [Example 54-77-1]

SMILES	Coupled exchange IC50 (5 min)
C=CC(=O)N1CCN(c2nc(=O)n(-c3ccccc3C)c3nc(OCCCC)c(Cl)cc23)[C@@H](C)C1 [Example 60-13, 7-butoxy-6-chloro-1-(2-methylphenyl)-4-((2S)-2-methyl-4-(2-propenoyl)-1-piperazinyl)pyrido[2,3-d]pyrimidin-2(1H)-one]	85 | nda μM
